Measured values taken from paper PMC11133798, “Vosoritide treatment for children with hypochondroplasia: a phase 2 trial” (eClinicalMedicine, 2024).
Several values for one entry are separate records, joined by “and”; a condition that tells them apart may be missing. Equal entries are not always repeated.

Experiments:
[1] = test system: children with hypochondroplasia; assay: Phase 2 open-label trial: height efficacy outcomes (annualized growth velocity, height SDS); type: in vivo, human; settings: for Annualized growth velocity, treatment period / Annualized growth velocity SDS, treatment period: SD
Description: The study consists of a 6-month observation period to establish a baseline annualized growth velocity followed by a 12-month intervention period during which vosoritide is administered daily via subcutaneous injection at a dose of 15 μg/kg/day, the same dose as used in the Phase 3 trial of children with achondroplasia.[7] […] Details of the protocol can be found in the Supplementary Materials.
The study has 3 prespecified co-primary outcomes: 1. To evaluate the safety and tolerability of daily subcutaneous injections of vosoritide administered for 12 months in patients with selected genetic causes of short stature, 2. To evaluate the change from baseline in age-sex standardized annualized growth velocity after 12 months of daily SC injections of vosoritide in patients with selected genetic causes of short stature, and 3. To evaluate the change from baseline in age-sex standardized height SDS after 12 months of daily SC injections of vosoritide in patients with selected genetic causes of short stature. Annualized growth velocity was standardized using data from the First Zurich Longitudinal Study of Growth and Development[9] as it includes growth velocity data starting at age 2.5 years. Height SDS was calculated using the United States CDC growth charts.[8] Hypochondroplasia specific height SDS was calculated using recently published hypochondroplasia growth curves.[10] To measure these outcomes, the following 3 co-primary endpoints were specified: 1. The incidence of adverse events per participant, 2. The change from baseline in age-sex standardized annualized growth velocity after 12 months of treatment, and 3. The change from baseline in age-sex standardized height SDS after 12 months of treatment. Height was measured five times at each study visit on a wall-mounted calibrated Harpenden stadiometer. The average of all five values was used. Safety assessments included routine laboratory evaluations at each visit, baseline and Month 12 echocardiograms, electrocardiograms at each visit, vital signs measurements, and spine X-rays at Day 1 and Month 12.
(§1) No formal power calculations were done for this proof of principle study. Sample size was determined based on logistical feasibility. Medication adherence was calculated using the number of returned empty vials divided by the number of days of prescribed therapy. Demographics and clinical characteristics were summarized with mean and standard deviation (SD), median and interquartile (IQR) for numerical variables, frequency and proportion for categorical variables. Primary and secondary clinical outcomes were summarized with mean (SD) for the 6-month observation period and the 12-month treatment period. Paired t-tests were carried out to compare the difference between the treatment and observation periods. The corresponding p-value and 95% confidence interval (CI) were reported. Box and whisker plots were used for both primary endpoints (annualized growth velocity and height SDS) and exploratory endpoints (CXM and cGMP) to visualize the trends for the change from baseline to each of the follow-up visits. Safety data (AEs) were summarized as count and percentage of patients as well as the number of total occurrences per each listed AE for the observation period and the treatment period, respectively. As exploratory analyses, the primary endpoints were stratified based on age, baseline growth velocity and baseline height SDS. The summaries of mean (SD) for each visit, mean differences between treatment and observation periods, and the corresponding p-value and 95% CI were all reported. Parent reported quality of life using the QoLISSY scale was also reported with a similar tabular format. Data were analyzed using SAS for Windows version 9.4 (SAS Institute Inc., Cary, NC). A two-sided test with a significance level of 0.05 was used for all hypothesis tests.

[2] = test system: children with hypochondroplasia; assay: Phase 2 trial secondary outcomes: bone age, sitting height ratio, arm span minus height; type: in vivo, human
Description: (§2) Secondary outcomes included the change in body proportions as measured by sitting height to standing height ratio and arm span minus standing height, as well as the change in bone age to chronological age ratio after 12 months of therapy. Sitting height was measured three times at each visit using a sitting height table. The average of the three values was used. Sitting height to standing height ratio and arm span minus standing height were standardized for age and sex using available reference data and SDS were calculated.[11]^,[12] Bone age X-rays were read by a single reviewer who was blinded to participant ID, age and time point. Exploratory endpoints included pharmacokinetic parameters, pharmacodynamic markers including collagen X biomarker (CXM) levels and urine cGMP production, and changes in quality of life as measured by the QoLISSY scale.[13] CXM levels in serum were measured in duplicate via an ELISA assay at the Shriners Hospitals for Children in Portland, Oregon as previously described.[14] The average of the two values was used for analysis. Urine samples were obtained for cGMP measurement at baseline and 60, 120, and 240 min after vosoritide injections at the Day 1, Month 6 and Month 12 visits. cGMP levels were assayed at ICON Laboratories (Farmingdale, NY) and were normalized to urine creatinine levels at each time point.
as §1

[3] = test system: collagen X biomarker (CXM); assay: Serum collagen X biomarker (CXM) by ELISA; type: in vivo, human
Description: as §2

[4] = test system: children with hypochondroplasia; assay: Parent-reported quality of life, QoLISSY scale; type: in vivo, human
Description: as §2, §1

[5] = test system: subjects of trials to date; settings: in vivo; cited from earlier work
Description: We will perform a single arm, open‐ label, Phase I/II study of vosoritide in patients with the selected genetic causes of short stature identified above.

PGQEHPNARKYKGANKKGLSKGCFGLKLDRIGSMSGLGC (disulfide) [vosoritide]
Annualized growth velocity, treatment period ([1]; 15 μg/kg/day SC daily, 12-month treatment period, n=24, mean (SD), 6-month observation period 5.12 (1.36)): 6.93 (0.93) cm/year | Standing height SDS, change during treatment period ([1]; CDC growth charts, Day 1 to Month 12, n=24, mean (95% CI), change in observation period 0.01 (−0.06, 0.08)): 0.37 (0.27, 0.47) SD | Hypochondroplasia specific standing height SDS, change during treatment period ([1]; Day 1 to Month 12, n=24, mean (95% CI), change in observation period 0.03 (−0.12, 0.19)): 0.41 (0.32, 0.50) SD | Annualized growth velocity SDS, treatment period ([1]; age-sex standardized (First Zurich Longitudinal Study), 15 μg/kg/day SC, 12-month treatment, n=24, mean (SD), observation period −1.14 (1.29)): 1.12 (1.05) cm/year | Annualized growth velocity, Month 6 versus Month 12 visit ([1]; n=24, on treatment): no significant difference | Increase in annualized growth velocity, single participant with treatment interruption ([1]; person, vosoritide suspended for 40 days for immune thrombocytopenia): 2.4 cm/year | Annualized growth velocity, treatment period ([1]; subgroup Age 3 to <5 Year (N=10), 12-month treatment, 15 μg/kg/day SC, mean (SD), observation 5.97 (1.38)): 7.32 (0.79) cm/yr | Annualized growth velocity SDS, treatment period ([1]; subgroup Age 3 to <5 Year (N=10), mean (SD), observation -0.82 (1.12)): 1.23 (1.01) cm/yr | Annualized growth velocity, treatment period ([1]; subgroup Age 5 to <9 Year (N=11), mean (SD), observation 4.27 (0.75)): 6.91 (0.80) cm/yr | Annualized growth velocity SDS, treatment period ([1]; subgroup Age 5 to <9 Year (N=11), mean (SD), observation -1.93 (0.81)): 1.29 (1.13) cm/yr | Annualized growth velocity SDS, treatment period ([1]; subgroup Age 9 to <11 Year (N=3), mean (SD), observation 0.71 (1.12)): 0.16 (0.38) cm/yr | Annualized growth velocity, treatment period ([1]; subgroup Age 9 to <11 Year (N=3), mean (SD), observation 5.37 (1.53)): 5.71 (0.98) cm/yr | Annualized growth velocity, treatment period ([1]; subgroup GV baseline <=5.0 (N=14), mean (SD), observation 4.17 (0.59)): 6.91 (1.01) cm/yr | Annualized growth velocity, treatment period ([1]; subgroup GV baseline > 5.0 (N=10), mean (SD), observation 6.45 (0.94)): 6.96 (0.85) cm/yr | Annualized growth velocity, treatment period ([1]; subgroup Height SDS baseline -3.5 to <=-3.0 (N=9), mean (SD), observation 5.17 (0.89)): 6.88 (0.84) cm/yr | Annualized growth velocity, treatment period ([1]; subgroup Height SDS baseline <=-3.5 (N=7), mean (SD), observation 4.67 (1.11)): 6.64 (1.14) cm/yr | Annualized growth velocity, treatment period ([1]; subgroup Height SDS baseline >-3.0 (N=8), mean (SD), observation 5.46 (1.95)): 7.24 (0.86) cm/yr | Change in annualized growth velocity (SDS), single participants without the Asn540Lys variant in FGFR3 ([1]; two participants (Gly342Cys, Ser351Phe per Table 1), one value each, cohort mean 2.26 SD): 2.5 SD and 2.4 SD | Bone age, Month 12 ([2]; 15 μg/kg/day SC, mean (SD), Day 1 61.42 (30.40), single blinded reader, SD): 71.58 (32.17) months | Bone age, change during treatment period ([2]; Day 1 to Month 12, mean (95% CI), p<0.0001): 10.17 (7.03, 13.31) months | Bone age/chronological age, change during treatment period ([2]; Day 1 to Month 12, mean (95% CI), p=0.67): 0.01 (−0.03, 0.05) | Sitting height ratio unadjusted, change during treatment period ([2]; Day 1 to Month 12, mean (95% CI), observation period −0.001 (−0.003, 0.001)): −0.009 (−0.01, −0.006) | Arm span minus height unadjusted, change during treatment period ([2]; Day 1 to Month 12, mean (95% CI), observation period −0.66 (−1.72, 0.40)): −0.76 (−1.55, 0.04) | Bone age/chronological age, Month 12 ([2]; mean (SD), Day 1 0.78 (0.14), SD): 0.79 (0.15) | Arm span minus height unadjusted, Month 12 ([2]; mean (SD), Day 1 −6.26 (2.83), protocol: measurements in centimeters, SD): −7.01 (3.21) | Sitting height ratio unadjusted, Month 12 ([2]; sitting height/standing height, mean (SD), Day 1 0.63 (0.02), SD): 0.62 (0.02) | CXM levels, Month 6 versus Month 12 visit ([3]; n=24, on treatment): no significant differences | CXM, Month 12 ([3]; serum, ELISA in duplicate, 15 μg/kg/day SC, mean (SD), Day 1 22.48 (6.49), SD): 41.62 (15.86) ng/ml | Overall or domain specific parental-reported quality of life (QoLISSY) ([4]; 12 months of treatment): no significant changes | QoLISSY Coping, change during treatment period ([4]; mean, 95% CI (-7.29, 3.75), p=0.51): -1.77 | QoLISSY Belief, change during treatment period ([4]; mean, 95% CI (-9.30, 10.39), p=0.91): 0.54 | QoLISSY Physical, change during treatment period ([4]; mean, 95% CI (-10.25, 7.47), p=0.75): -1.39 | QoLISSY Total (Social, Emotional, Coping), change during treatment period ([4]; mean, 95% CI (-10.55, 4.09), p=0.37): -3.23 | QoLISSY Emotional, change during treatment period ([4]; mean, 95% CI (-12.12, 3.01), p=0.23): -4.56 | QoLISSY Social, change during treatment period ([4]; mean, 95% CI (-12.43, 4.96), p=0.38): -3.74 | QoLISSY Total (Social, Emotional, Coping), Month 6 ([4]; parent-reported, mean, SD (16.08), Day 1 60.33 (18.99)): 61.73 | QoLISSY Treatment, Month 12 ([4]; parent-reported, mean, SD (16.43)): 38.23 | QoLISSY Total (Social, Emotional, Coping), Month 12 ([4]; parent-reported, mean, SD (17.99)): 57.10 | QoLISSY Treatment, Month 6 ([4]; parent-reported, mean, SD (18.36)): 37.86 | QoLISSY Emotional, Month 12 ([4]; parent-reported, mean, SD (18.44)): 62.37 | QoLISSY Coping, Month 12 ([4]; parent-reported, mean, SD (18.71)): 35.79 | QoLISSY Physical, Month 6 ([4]; parent-reported, mean, SD (18.77), Day 1 52.60 (18.22)): 55.38 | QoLISSY Social, Month 6 ([4]; parent-reported, mean, SD (19.50), Day 1 61.46 (21.05)): 61.20 | QoLISSY Physical, Month 12 ([4]; parent-reported, mean, SD (20.09)): 51.22 | QoLISSY Emotional, Month 6 ([4]; parent-reported, mean, SD (20.12), Day 1 66.93 (22.25)): 68.62 | QoLISSY Social, Month 12 ([4]; parent-reported, mean, SD (20.40)): 57.72 | QoLISSY Coping, Month 6 ([4]; parent-reported, mean, SD (20.45), Day 1 38.14 (19.61)): 35.61 | QoLISSY Belief, Month 12 ([4]; parent-reported, mean, SD (22.98)): 66.93 | QoLISSY Belief, Month 6 ([4]; parent-reported, mean, SD (29.10), Day 1 65.22 (28.63)): 62.23 | Serious hypersensitivity reactions [5]: no serious hypersensitivity reactions | Subjects having some form of injection site reaction [5]: ~ 85% | Subjects with an event of hypotension in study 111-205 [5]: 3.3% | Subjects with hypotension documented on vital sign measurement [5]: ~ 45%
